According to patent US20250381165A1, “Method of Use for Benzofuran Compounds” (Tampa Bay Research Institute, Inc., priority 2024, published 2025):
≈ marks a conversion by molar mass, not a printed value.

Tests used:
DC2.4 = test: CellTiter-Glo cell viability, DC2.4; assay type: cell-based, murine; design: effect on cell viability: unit of the concentration uncertain
Experimental: (§1) BzFβ was then examined for its effect on the viability of several murine and human cell lines and primary murine splenocytes. The cytotoxicity of BzFβ was assessed using the CellTiter-Glo […] assay system according to manufacturer's instructions to determine BzFβ's effect on the viability of several murine and human cell lines and primary murine splenocytes.
(§2) DC2.4 cell line (Dr. Kenneth Rock, University of Massachusetts), RAW 264.7 cell line (American Type Culture Collection (ATCC), Manassas, VA; TIB 71), and IMG cell line (Millipore™, Merck KGaA, Burlington, MA; cat. no. SC-C134) were each cultured in complete Dulbecco's Modified Eagle Medium (cDMEM) containing […] glucose (Gibco™, Thermo Fisher Scientific Inc., Waltham, MA; cat. no. 10566-016) and supplemented with GlutaMAX, 50 U/mL penicillin and 50 µg/mL streptomycin (Gibco™; cat. no. 15070-063) and 10% heat inactivated fetal bovine serum (FBS) (R&D Systems, Inc., Minneapolis, MN; cat. no. […]
(§3) The cytotoxicity of BzFβ was assessed using the CellTiter-Glo cell […] viability assay system […] cat. no. […] CellTiter-Glo was added 1:1 in the media and the level of chemiluminescence was measured using luminescence at wavelengths of 200 nm to 700 nm through a photomultiplier on BioTek's Synergy HTX multimode microplate reader. […]

RAW 264.7 = test: CellTiter-Glo cell viability, RAW 264.7; assay type: cell-based, murine; details: Mus musculus, RAW264.7
Experimental: as §1, §2, §3

[1] = tested on: MHC class I H-2Kb on DC2.4; test: MHC class I recovery after acid stripping of DC2.4; assay type: cell-based, murine
Experimental: To determine if BzFβ affects synthesis or cycling of the MHC class I molecules, the class I molecule/peptide complexes were stripped from the surface of DC2.4 cells using a citric acid buffer, then treated with 25 μg/mL BzFβ, 5 mM of the dipeptide GL, or 3 μg/mL BFA (see Example 4) as a negative control.
An acid wash to strip the cell surface of MHC class I was performed as described with modifications. (Montealegre, et al., Dissociation of β2-microglobulin determines the surface quality control of major histocompatibility complex class I molecules. FASEB. 2015 July; 29(7):2780-8). DC2.4 were incubated overnight at 37° C. at 1×10^5. Cells were washed for 2 min in acidic buffer [(pH 2.5) 465 mM Citric acid, 35 mM sodium citrate, in PBS with 1% v/v FBS] or neutral buffer [(pH 7.4) PBS with 1% v/v FBS]. Afterwards the pH was neutralized by the addition of cDMEM. The cells were washed with PBS and treated with BzFβ or GL in cDMEM for various times to allow for MHC class I recovery at 37° C. Cells were washed and stained with an H-2Kb-specific antibody (Invitrogen, cat. no. 12-5958-82) and analyzed by flow cytometry as described previously
MHC I recovery on the cell surface at various time points was detected by flow cytometry using the PE-labeled MHC class I H-2Kb specific antibody (AF6-88.5.5.3). […] At 6 hours >60% of the MHC class I molecules recovered, seen in FIG. 14.

[2] = Solubility in alkaline water; assay type: physicochemical; details: pH 10, aqueous buffer, read-out: limit to the solubility in alkaline water (converted)
Experimental: Mice were gavaged with BzFβ at doses ranging from 25 mg/kg body to 100 mg/kg body weight, injected intravenously (iv) with 50 μg BzFβ or injected intramuscularly with BzFβ at 25 to 40 mg/kg body weight. For two weeks post-treatment, water intake and weight were monitored. […] The limit to the solubility of BzFβ in alkaline water is 4 mg, therefore no further doses were tested.

O=C(O)/C=C/c1ccc2occc2c1 [BzFβ, (2E)-3-(1-benzofuran-5-yl)prop-2-enoic acid]
IC50 (DC2.4; Mus musculus, DC2.4, CellTiter-Glo): 1150 µM | effect on cell viability (DC2.4; all the cell lines examined, except HEK293T, 24 h exposure, concentrations lower than 50 µg/mL (266 (unit uncertain))): small effects on cell viability | IC50 (RAW 264.7): 783 µM | MHC class I recovery after acid stripping ([1]; 25 μg/mL BzFβ or 5 mM GL during recovery, 4-24 h): did not show an increase in MHC class I recovery | B3Z response post acid-stripping ([1]; treated during recovery, data not shown): still able to increase the B3Z response | solubility [2]: 20 mg/mL (≈ 106 mM)
